# Data taken from patent US20260273073A1, “TRANSDUCIN BETA-LIKE PROTEIN 1 DEGRADERS” (Ohio State Innovation Foundation, priority 2023, published 2026).
# Like-named read-outs stand apart in the source and are kept apart here.
# Key:
# Assay type in all cases: cell-based
# [1] = tested on: Riva; assay: PROTAC compounds evaluated against lymphoma cell line Riva
# Description: (§1) A library of PROTAC compounds was prepared according to the sequences depicted in FIGS. 1 and 2. These compounds were evaluated against three different lymphoma cell lines (Riva, Pfeiffer, and Granta-519): […]
# [2] = tested on: Pfeiffer; assay: PROTAC compounds evaluated against lymphoma cell line Pfeiffer
# Description: as §1
# [3] = tested on: Granta-519; assay: PROTAC compounds evaluated against lymphoma cell line Granta-519; conditions: Granta-519 lymphoma cell line
# Description: as §1
Structure (SMILES),IC50 [1] [nM],IC50 [2] [nM],IC50 [3] [nM],IC50 ([2]; Homo sapiens) [nM],IC50 ([3]; Homo sapiens) [nM]
CC1CC(C)CN(S(=O)(=O)c2ccc3c(c2)C(=NO)c2cc(S(=O)(=O)N4CCN(C(=O)CCOCCOCCOCCNc5cccc6c5C(=O)N(C5CCC(=O)NC5=O)C6=O)CC4)ccc2C3=NO)C1 (stereo not drawn) [RY-3-123],> 20000,> 20000,> 20000,–,–
CC1CC(C)CN(S(=O)(=O)c2ccc3c(c2)C(=NO)c2cc(S(=O)(=O)N4CCN(C(=O)CCOCCOCCNc5cccc6c5C(=O)N(C5CCC(=O)NC5=O)C6=O)CC4)ccc2C3=NO)C1 (stereo not drawn) [RY-3-113],> 20000,> 20000,> 20000,–,–
CC1CC(C)CN(S(=O)(=O)c2ccc3c(c2)C(=NO)c2cc(S(=O)(=O)N4CCN(C(=O)CCCCCCCCCCNc5cccc6c5C(=O)N(C5CCC(=O)NC5=O)C6=O)CC4)ccc2C3=NO)C1 (stereo not drawn) [RY-3-121],1160,2500,1160,–,–
CC1CC(C)CN(S(=O)(=O)c2ccc3c(c2)C(=NO)c2cc(S(=O)(=O)N4CCN(C(=O)CCCCNc5cccc6c5C(=O)N(C5CCC(=O)NC5=O)C6=O)CC4)ccc2C3=NO)C1 (stereo not drawn) [RY-3-120],560,647,496,–,–
CC1CC(C)CN(S(=O)(=O)c2ccc3c(c2)C(=NO)c2cc(S(=O)(=O)N4CCN(C(=O)CCOCCNc5cccc6c5C(=O)N(C5CCC(=O)NC5=O)C6=O)CC4)ccc2C3=NO)C1 (stereo not drawn) [RY-3-122],> 20000,> 20000,> 20000,–,–
CC1CC(C)CN(S(=O)(=O)c2ccc3c(c2)C(=NO)c2cc(S(=O)(=O)N4CC(C)CC(C)C4)ccc2C3=NOCCCNC(=O)CCNc2cccc3c2C(=O)N(C2CCC(=O)NC2=O)C3=O)C1 (stereo not drawn) [RY-3-127],651,189,323,–,–
CC1CC(C)CN(S(=O)(=O)c2ccc3c(c2)C(=NO)c2cc(S(=O)(=O)N4CCN(C(=O)CCNc5cccc6c5C(=O)N(C5CCC(=O)NC5=O)C6=O)CC4)ccc2C3=NO)C1 (stereo not drawn) [RY-3-119],797,564,399,–,–
CC1CC(C)CN(S(=O)(=O)c2ccc3c(c2)C(=NO)c2cc(S(=O)(=O)N4CCN(C(=O)CCCCCCNc5cccc6c5C(=O)N(C5CCC(=O)NC5=O)C6=O)CC4)ccc2C3=NO)C1 (stereo not drawn) [RY-3-108],605,343,439,–,–
CC1CC(C)CN(S(=O)(=O)c2ccc3c(c2)C(=NO)c2cc(S(=O)(=O)N4CC(C)CC(C)C4)ccc2C3=NOCCCNC(=O)CCCCCCCCCCNc2cccc3c2C(=O)N(C2CCC(=O)NC2=O)C3=O)C1 (stereo not drawn) [RY-3-124],> 20000,> 20000,> 20000,–,–

# Further lines, results first:
IC50 [1] [nM],IC50 [2] [nM],IC50 [3] [nM],IC50 ([2]; Homo sapiens) [nM],IC50 ([3]; Homo sapiens) [nM],Structure (SMILES)
> 20000,1880,> 20000,–,–,CC1CC(C)CN(S(=O)(=O)c2ccc3c(c2)C(=NO)c2cc(S(=O)(=O)N4CC(C)CC(C)C4)ccc2C3=NOCCCNC(=O)CCOCCOCCNc2cccc3c2C(=O)N(C2CCC(=O)NC2=O)C3=O)C1 (stereo not drawn) [RY-3-131]
1350,554,1040,–,–,CC1CC(C)CN(S(=O)(=O)c2ccc3c(c2)C(=NO)c2cc(S(=O)(=O)N4CC(C)CC(C)C4)ccc2C3=NOCCCNC(=O)CCOCCNc2cccc3c2C(=O)N(C2CCC(=O)NC2=O)C3=O)C1 (stereo not drawn) [RY-3-129]
> 20000,> 20000,> 20000,–,–,CC1CC(C)CN(S(=O)(=O)c2ccc3c(c2)C(=NO)c2cc(S(=O)(=O)N4CC(C)CC(C)C4)ccc2C3=NOCCCNC(=O)CCOCCOCCOCCNc2cccc3c2C(=O)N(C2CCC(=O)NC2=O)C3=O)C1 (stereo not drawn) [RY-3-132]
86,–,–,175,94,"C[C@@H]1C[C@H](C)CN(S(=O)(=O)c2ccc3c(c2)C(=NO)c2cc(S(=O)(=O)N4C[C@H](C)C[C@H](C)C4)ccc2C3=NO)C1 [Tegavivint, tegavivint, reference compound]"
929,355,530,–,–,CC1CC(C)CN(S(=O)(=O)c2ccc3c(c2)C(=NO)c2cc(S(=O)(=O)N4CC(C)CC(C)C4)ccc2C3=NOCCCNC(=O)CCCCCCNc2cccc3c2C(=O)N(C2CCC(=O)NC2=O)C3=O)C1 (stereo not drawn) [RY-3-130]
795,398,523,–,–,CC1CC(C)CN(S(=O)(=O)c2ccc3c(c2)C(=NO)c2cc(S(=O)(=O)N4CC(C)CC(C)C4)ccc2C3=NOCCCNC(=O)CCCCNc2cccc3c2C(=O)N(C2CCC(=O)NC2=O)C3=O)C1 (stereo not drawn) [RY-3-128]
